From article PMC11865921, “Effect of mono-guanidine-like derivatives on platelet aggregation and tumour cell induced platelet aggregation” (RSC Medicinal Chemistry, 2025) come the findings set out here.

Read-outs that look alike come from different tables or passages of the source.

In one experiment the target is T1, sigma σ1 receptor.
T1 construct: gene SIGMAR1; PDSP has often used guinea pig or rat tissue for sigma1
Briefly: PDSP radioligand competition binding. The text has this:
PDSP radioligand competition binding on sigma σ1 receptor

The next experiment addresses T2, sigma σ2 receptor.
T2 construct: gene TMEM97; PDSP has often used rat PC12 cells or guinea pig tissue for sigma2
In words: PDSP radioligand competition binding. The conditions noted are these: read-out: [drawing 1]. The source says:
PDSP radioligand competition binding on sigma σ2 receptor

Turning to `N=C(N)Nc1ccc2c(n1)CCCC2` [compound 1], the values for the Ki at sigma σ1 receptor (read-out: [drawing 1]) and at sigma σ2 receptor were 266 nM and 547 nM, respectively.

In the case of `c1cc2c(nc1NC1=NCCN1)CCCC2` [compound 2], the Ki at sigma σ1 receptor (read-out: [drawing 2]) stood at 179 nM.
